Reference: patent US20260242452A1, “METHOD FOR DEGRADING TARGET PROTEIN” (Inter-University Research Institute Corporation Research …, priority 2023, published 2026)

How the values were obtained:
Assay type in all cases: cell-based, human
SMC6-GFP = test: Degradation of SMC6-GFP, GFP fluorescence quantified by flow cytometry (FACS); details: 1 μM 5-Ph-IAA, 4 hours; HCT116 cells expressing SMC6-GFP, OsTIR1 (F74G) and GFP nanobody adapter
Description: (§1) As an mAID-single-chain antibody (nanobody) gene (also referred to as an adapter), a wild-type (WT adapter) and a ubiquitination-resistant mutant (KR adapter) in which all lysine residues (K) in the amino acid sequence encoded by the mAID-single-chain antibody (nanobody) gene were substituted with arginine residues (R) were prepared.
(§2) A co-expression vector in which the OsTIR1 (F74G) gene and the WT adapter or the KR adapter were connected by a self-cleaving sequence P2A gene was prepared (see FIG. 2).
(§3) In the chromosome of HCT116 cells, DNA encoding GFP was introduced into the downstream of DNA encoding each of the nuclear protein SMC6 and the cytoplasmic protein DHC1 by transposon, and cells expressing SMC6-GFP and cells expressing DHC1-GFP were prepared.
(§4) A co-expression vector containing an adapter (WT adapter; KR adapter) that contains a gene encoding a GFP nanobody (GFP nanobody WT gene sequence (SEQ ID NO: 9); GFP nanobody KR gene sequence (SEQ ID NO: 10)), together with the OsTIR1 (F74G) gene, was introduced into the cells expressing each SMC6-GFP and DHC1-GFP. […]
(§5) These cells were treated with 1 μM 5-Ph-IAA for 4 hours, and the GFP fluorescence in the cells was quantified using flow cytometry. […]
as §5

DHC1-GFP = test: Degradation of DHC1-GFP, GFP fluorescence quantified by flow cytometry (FACS); details: 1 μM 5-Ph-IAA, 4 hours; HCT116 cells expressing DHC1-GFP, OsTIR1 (F74G) and GFP nanobody adapter
Description: as §1, §2, §3, §4, §5, §5

RAD21-GFP = test: Degradation of RAD21-GFP, GFP fluorescence quantified by flow cytometry (FACS); details: 1 μM 5-Ph-IAA, 4 hours; HCT116 cells expressing RAD21-GFP, OsTIR1 (F74G) and GFP nanobody adapter
Description: As the mAID-single-chain antibody (nanobody) gene, in addition to the WT adapter and the KR adapter, a hybrid adapter in which all lysine residues (K) in the amino acid sequence encoded by the mAID gene were substituted with arginine residues (R) was prepared. As in Example 1, a co-expression vector in which the OsTIR1 (F74G) gene and the WT adapter, the KR adapter, or the hybrid adapter were connected by a self-cleaving sequence P2A gene was prepared (see FIG. 7).
In the chromosome of HCT116 cells, DNA encoding GFP was added to the downstream of DNA encoding each of the nuclear protein SMC6, the nuclear protein RAD21, and the cytoplasmic protein DHC1 by genome editing, and cells expressing SMC6-GFP and cells expressing DHC1-GFP were prepared (see FIG. 8).
A co-expression vector containing an adapter (WT adapter; KR adapter; hybrid adapter) that contains a gene encoding a GFP nanobody (GFP nanobody WT (SEQ ID NO: 9); GFP nanobody KR (SEQ ID NO: 10)), together with the OsTIR1 (F74G) gene, was introduced into the cells expressing each SMC6-GFP, RAD21-GFP, and DHC1-GFP by transposon. As a control, a plasmid in which only OsTIR1 (F74G) and mAID were expressed was introduced (see FIG. 8).
as §5

endogenous p53 = test: Expression level of endogenous p53 by Western blotting; details: 1 μM 5-Ph-IAA, 6 hours; cells expressing OsTIR1 (F74G) and p53 nanobody KR adapter
Description: (§6) Furthermore, the same experiment was performed using an adapter (WT adapter; KR adapter) containing a gene encoding a p53 nanobody (p53 nanobody WT gene sequence (SEQ ID NO: 11); p53 nanobody KR gene sequence (SEQ ID NO: 12)) (see the left part of FIG. 6). The cells were treated with 1 μM 5-Ph-IAA for 6 hours, and the expression level of endogenous p53 was confirmed by Western blotting. The results are shown in the right part of FIG. 6.
as §6, with “adapter; KR adapter; hybrid adapter) containing” for “adapter; KR adapter) containing”, “of FIG. 10). The cells” for “of FIG. 6). The cells”

endogenous RAS = test: Expression level of endogenous RAS by Western blotting; details: 1 μM 5-Ph-IAA, 6 hours; cells expressing OsTIR1 (F74G) and RAS nanobody hybrid adapter
Description: Furthermore, the same experiment was performed using an adapter (KR adapter; hybrid adapter) containing a gene encoding a RAS nanobody (gene sequence of RAS nanobody WT (SEQ ID NO: 14), amino acid sequence of RAS nanobody WT (SEQ ID NO: 15); gene sequence of RAS nanobody KR (SEQ ID NO: 16), amino acid sequence of RAS nanobody KR (SEQ ID NO: 17)) (see the left part of FIG. 11). The cells were treated with 1 μM 5-Ph-IAA for 6 hours, and the expression level of endogenous RAS was confirmed by Western blotting. The results are shown in the right part of […].

O=C(O)Cc1c[nH]c2ccc(-c3ccccc3)cc12 [Formula 5-Ph-IAA, 5-Ph-IAA]
5-Ph-IAA-dependent degradation of target protein SMC6-GFP (GFP fluorescence) (SMC6-GFP): could be degraded | 5-Ph-IAA-dependent degradation of target protein DHC1-GFP (GFP fluorescence) (DHC1-GFP): could be degraded | 5-Ph-IAA-dependent degradation of target protein RAD21-GFP (GFP fluorescence) (RAD21-GFP): could be degraded | 5-Ph-IAA-dependent degradation of endogenous p53 (Western blotting) (endogenous p53): could be degraded | 5-Ph-IAA-dependent degradation of endogenous RAS (Western blotting) (endogenous RAS): could be efficiently degraded
